Source: PubChem BioAssay (NCI)
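GI50 is the concentration that inhibits growth by half. Definition used: TGI = concentration required for complete inhibition of growth.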

Key:
Test in all cases: inhibition of tumour cell growth, NCI panel, 384-well format
[1] = tested on: HOP-62 NSCLC
[2] = tested on: CAKI-1 renal
[3] = tested on: MDA-MB-231 breast
[4] = tested on: NCI-H322M lung
[5] = tested on: RPMI-8226 leukemia
[6] = tested on: HOP-92 NSCLC
[7] = tested on: NCI-H226 lung
[8] = tested on: OVCAR-3 ovarian
[9] = tested on: SNB-19 CNS
[10] = tested on: MDA-MB-468 breast
[11] = tested on: MALME-3M melanoma
[12] = tested on: SF-295 CNS
[13] = tested on: NCI-H460 NSCLC
[14] = tested on: HCT-15 colon
[15] = tested on: RXF 393 renal
[16] = tested on: COLO 205 colon
[17] = tested on: SK-MEL-5 melanoma
[18] = tested on: KM12 colon
[19] = tested on: NCI-H522 lung
[20] = tested on: PC-3 prostate
[21] = tested on: HCT-116 colon
[22] = tested on: MDA-MB-435 melanoma
[23] = tested on: A549 NSCLC
[24] = tested on: EKVX NSCLC
[25] = tested on: HT29 colon
[26] = tested on: HCC-2998 colon
[27] = tested on: MCF7 breast
[28] = tested on: SF-539 CNS
[29] = tested on: LOX IMVI melanoma
[30] = tested on: OVCAR-5 ovarian
[31] = tested on: SF-268 CNS
[32] = tested on: M14 melanoma
[33] = tested on: SR leukemia
[34] = tested on: NCI/ADR-RES ovarian
[35] = tested on: HL-60(TB) leukemia
[36] = tested on: HS 578T breast
[37] = tested on: SK-OV-3 ovarian
[38] = tested on: A498 renal
[39] = tested on: U251 glioblastoma
[40] = tested on: UACC-62 melanoma
[41] = tested on: TK-10 renal
[42] = tested on: NCI-H23 lung
[43] = tested on: BT-549 breast
[44] = tested on: OVCAR-4 ovarian
[45] = tested on: OVCAR-8 ovarian
[46] = tested on: ACHN renal
[47] = tested on: SNB-75 CNS
[48] = tested on: MOLT-4 leukemia
[49] = tested on: DU-145 prostate
[50] = tested on: SN12C renal
[51] = tested on: T-47D breast
[52] = tested on: UACC-257 melanoma
[53] = tested on: IGROV1 ovarian
[54] = tested on: SK-MEL-28 melanoma

N#CCNC(=O)c1ccc(-c2ccnc(Nc3ccc(N4CCOCC4)cc3)n2)cc1
GI50 [1]: 1.81 µM
TGI [1]: 4.09 µM
GI50 [2]: 1.23 µM
TGI [2]: 3.19 µM
GI50 [3]: 1.89 µM
TGI [3]: 16.8 µM
GI50 [4]: 2.72 µM
TGI [4]: 10.8 µM
GI50 [5]: 1.23 µM
TGI [5]: 2.87 µM
GI50 [6]: 6.94 µM
TGI [6]: 29 µM
GI50 [7]: 1.43 µM
TGI [7]: 3.66 µM
GI50 [8]: 4.64 µM
TGI [8]: 19 µM
GI50 [9]: 7.84 µM
TGI [9]: 28.3 µM
GI50 [10]: 1.37 µM
TGI [10]: 3.2 µM
GI50 [11]: 3.05 µM
TGI [11]: 23.5 µM
GI50 [12]: 4.06 µM
TGI [12]: 17 µM
GI50 [13]: 1.06 µM
TGI [13]: 2.5 µM
GI50 [14]: 3.02 µM
TGI [14]: 10.7 µM
GI50 [15]: 1.61 µM
TGI [15]: 3.26 µM
GI50 [16]: 4.24 µM
TGI [16]: 14.8 µM
GI50 [17]: 2.16 µM
TGI [17]: 9.34 µM
GI50 [18]: 3.51 µM
TGI [18]: 74.1 µM
GI50 [19]: 1.64 µM
TGI [19]: 6.45 µM
GI50 [20]: 2.9 µM
TGI [20]: 11.8 µM
GI50 [21]: 1.51 µM
TGI [21]: 3.91 µM
GI50 [22]: 4.02 µM
TGI [22]: 21.5 µM
GI50 [23]: 3.19 µM
TGI [23]: 13.7 µM
GI50 [24]: 2.93 µM
TGI [24]: 16.8 µM
GI50 [25]: 4.15 µM
TGI [25]: 24.6 µM
GI50 [26]: 1.93 µM
TGI [26]: 4.18 µM
GI50 [27]: 2.24 µM
TGI [27]: 8.44 µM
GI50 [28]: 2.12 µM
TGI [28]: 10 µM
GI50 [29]: 1.7 µM
TGI [29]: 4.06 µM
GI50 [30]: 2.63 µM
TGI [30]: 5.71 µM
GI50 [31]: 2.12 µM
TGI [31]: 6.6 µM
GI50 [32]: 6.27 µM
TGI [32]: 51.2 µM
GI50 [33]: 0.468 µM
TGI [33]: 1.29 µM
GI50 [34]: 21.4 µM
TGI [34]: > 100 µM
GI50 [35]: 1.55 µM
TGI [35]: 2.89 µM
GI50 [36]: 1.32 µM
TGI [36]: 3.33 µM
GI50 [37]: 2.73 µM
TGI [37]: 20.7 µM
GI50 [38]: 1.14 µM
TGI [38]: 2.53 µM
GI50 [39]: 2.28 µM
TGI [39]: 5.9 µM
GI50 [40]: 3.57 µM
TGI [40]: 15.3 µM
GI50 [41]: 1.25 µM
TGI [41]: 3.27 µM
GI50 [42]: 2.33 µM
TGI [42]: 13.6 µM
GI50 [43]: 1.15 µM
TGI [43]: 2.46 µM
GI50 [44]: 3.59 µM
TGI [44]: 11.1 µM
GI50 [45]: 3.68 µM
TGI [45]: 17.6 µM
GI50 [46]: 1.27 µM
TGI [46]: 4.14 µM
GI50 [47]: 2.52 µM
TGI [47]: 15.5 µM
GI50 [48]: 2.07 µM
TGI [48]: 3.99 µM
GI50 [49]: 1.55 µM
TGI [49]: 3.99 µM
GI50 [50]: 0.787 µM
TGI [50]: 3.94 µM
GI50 [51]: 11 µM
TGI [51]: 39.9 µM
GI50 [52]: 3.19 µM
TGI [52]: 8.82 µM
GI50 [53]: 1.42 µM
TGI [53]: 3.91 µM
GI50 [54]: 6.23 µM
TGI [54]: 50.8 µM

COc1ccc(COc2cc3oc(=O)c4cc(C(C)O)ccc4c3cc2OC)cc1 (centres undefined)
GI50 [1]: 8.11 µM
TGI [1]: 24.5 µM
GI50 [2]: 18.6 µM
TGI [2]: 60.8 µM
GI50 [3]: 20.3 µM
TGI [3]: 77.5 µM
GI50 [4]: 20.4 µM
TGI [4]: 71.4 µM
GI50 [5]: 16.3 µM
TGI [5]: > 100 µM
GI50 [6]: 11.3 µM
TGI [6]: 30.1 µM
GI50 [7]: 15.2 µM
TGI [7]: 33.8 µM
GI50 [8]: 10.1 µM
TGI [8]: 24.7 µM
GI50 [9]: 7.73 µM
TGI [9]: 20.8 µM
GI50 [10]: 4.9 µM
TGI [10]: 25.2 µM
GI50 [11]: 15.8 µM
TGI [11]: > 100 µM
GI50 [12]: 10.4 µM
TGI [12]: 30.6 µM
GI50 [13]: 5.65 µM
TGI [13]: 85.9 µM
GI50 [14]: 3.57 µM
TGI [14]: > 100 µM
GI50 [15]: 5.55 µM
TGI [15]: 19.5 µM
GI50 [16]: > 100 µM
TGI [16]: > 100 µM
GI50 [17]: 3.62 µM
TGI [17]: 12.5 µM
GI50 [18]: 8.27 µM
TGI [18]: > 100 µM
GI50 [19]: 5.04 µM
TGI [19]: 16.4 µM
GI50 [20]: 24.9 µM
TGI [20]: 93.1 µM
GI50 [21]: 9.41 µM
TGI [21]: > 100 µM
GI50 [22]: 2.09 µM
TGI [22]: 4.71 µM
GI50 [23]: 18.6 µM
TGI [23]: > 100 µM
GI50 [24]: 12.2 µM
TGI [24]: 43.2 µM
GI50 [25]: 6.91 µM
TGI [25]: > 100 µM
GI50 [26]: 14.6 µM
TGI [26]: > 100 µM
GI50 [27]: 5.21 µM
TGI [27]: 22.2 µM
GI50 [28]: 7.79 µM
TGI [28]: 20.6 µM
GI50 [29]: 17 µM
TGI [29]: > 100 µM
GI50 [30]: 61.2 µM
TGI [30]: > 100 µM
GI50 [31]: 4.6 µM
TGI [31]: 16 µM
GI50 [32]: 8.95 µM
TGI [32]: > 100 µM
GI50 [33]: 1.87 µM
TGI [33]: 5.69 µM
GI50 [34]: 4.8 µM
TGI [34]: 59.4 µM
GI50 [36]: 5.56 µM
TGI [36]: 19.3 µM
GI50 [37]: 3.89 µM
TGI [37]: 21.2 µM
GI50 [38]: 12.2 µM
TGI [38]: 35 µM
GI50 [39]: 7.43 µM
TGI [39]: 24.8 µM
GI50 [40]: 8.49 µM
TGI [40]: 22.8 µM
GI50 [41]: 10.5 µM
TGI [41]: 25.6 µM
GI50 [42]: 11.9 µM
TGI [42]: 36.9 µM
GI50 [43]: 6.81 µM
TGI [43]: 20.5 µM
GI50 [44]: 3.41 µM
TGI [44]: 12.3 µM
GI50 [45]: 12.6 µM
TGI [45]: 54.2 µM
GI50 [46]: 23 µM
TGI [46]: 61.2 µM
GI50 [47]: 6.65 µM
TGI [47]: 20.3 µM
GI50 [48]: 5.6 µM
TGI [48]: > 100 µM
GI50 [49]: 41.6 µM
TGI [49]: > 100 µM
GI50 [50]: 20 µM
TGI [50]: 90.1 µM
GI50 [51]: 10.6 µM
TGI [51]: 61.5 µM
GI50 [52]: 24.3 µM
TGI [52]: 94.6 µM
GI50 [53]: 15.3 µM
TGI [53]: 35.7 µM
GI50 [54]: 55.3 µM
TGI [54]: > 100 µM
